{"source": "patent US9206130B2", "about": "“Quinoline derivatives as AXL kinase inhibitors” (Max-Planck-Gesellschaft zur Förderung der Wissenschaften …, priority 2008, dated 2015)", "note": "Counter-ions that a name gives are not always drawn."}
{"units": {"melting point": "°C"}}
{"smiles": "COc1cc2nccc(Oc3ccc(NS(=O)(=O)c4ccccc4)c(F)c3)c2cc1OC", "melting point": "234 to 235"}
{"smiles": "COc1cc2nccc(Oc3ccc(NS(=O)(=O)c4ccccc4C(F)(F)F)cc3)c2cc1OC", "melting point": "224 to 227"}
{"smiles": "COc1cc2nccc(Oc3ccc(NS(=O)(=O)c4ccccc4C(F)(F)F)cc3OC)c2cc1OC", "melting point": "198 to 199"}
{"smiles": "COc1cc2nccc(Oc3ccc(NS(=O)(=O)c4ccccc4C(F)(F)F)cc3C)c2cc1OC", "melting point": "209 to 211"}
{"smiles": "COc1cc2nccc(Oc3ccc(NS(=O)(=O)c4cccc(F)c4)c(F)c3)c2cc1OC", "melting point": "233 to 235"}
{"smiles": "COc1cc2nccc(Oc3ccc(NS(=O)(=O)c4cccc(C(F)(F)F)c4)c(F)c3)c2cc1OC", "melting point": "230 to 231"}
{"smiles": "COc1cc2nccc(Oc3ccc(NS(=O)(=O)c4ccc(F)cc4F)c(F)c3)c2cc1OC", "melting point": "212 to 214"}
{"smiles": "COc1cc2nccc(Oc3ccc(NS(=O)(=O)c4cc(F)ccc4F)c(F)c3)c2cc1OC", "melting point": "232 to 234"}
{"smiles": "COc1cc2nccc(Oc3ccc(NS(=O)(=O)c4c(Cl)cccc4Cl)c(F)c3)c2cc1OC", "melting point": "217 to 218"}
{"smiles": "COc1cc2nccc(Oc3ccc(NS(=O)(=O)c4cc(Cl)ccc4Cl)c(F)c3)c2cc1OC", "melting point": "228 to 230"}
{"smiles": "COc1cc2nccc(Oc3ccc(NS(=O)(=O)c4ccccc4C(F)(F)F)c(F)c3)c2cc1OC", "melting point": "237 to 239"}
{"smiles": "COc1cc2nccc(Oc3ccc(NS(=O)(=O)c4ccccc4C)c(F)c3)c2cc1OC", "melting point": "218 to 220"}
{"smiles": "COc1cc2nccc(Oc3ccc(NS(=O)(=O)c4ccccc4OC(F)(F)F)c(F)c3)c2cc1OC", "melting point": "204 to 206"}
{"smiles": "COc1cc2nccc(Oc3ccc(NS(=O)(=O)c4ccccc4C(F)(F)F)cc3F)c2cc1OC", "melting point": "80 to 83"}
{"smiles": "COc1cc2c(Oc3ccc(NS(=O)(=O)c4ccccc4C(F)(F)F)cc3F)ccnc2cc1OCCN1CCOCC1", "melting point": "178 to 180"}
{"smiles": "COc1cc2c(Oc3ccc(NS(=O)(=O)c4cc(F)ccc4F)cc3F)ccnc2cc1OCCN1CCOCC1", "melting point": "169 to 173"}
{"smiles": "COc1cc2c(Oc3ccc(NS(=O)(=O)c4cc(F)ccc4F)cc3F)ccnc2cc1OCCCN1CCC(C)CC1", "melting point": "223 to 225"}
{"smiles": "COc1cc2c(Oc3ccc(NS(=O)(=O)c4ccccc4C(F)(F)F)cc3F)ccnc2cc1OCCCN", "note": "(as salt: hydrochloride)", "melting point": "197 to 199"}
{"smiles": "COc1cc2c(Oc3ccc(NS(=O)(=O)c4cccc(-c5ccccc5)c4)cc3F)ccnc2cc1OCCCN", "note": "(as salt: hydrochloride) [Example D03, Biphenyl-3-sulfonic acid {4-[7-(3-amino-propoxy)-6-methoxy-quinolin-4-yloxy]-3-fluoro-phenyl}-amide hydrochloride]", "melting point": "198 to 202"}
{"smiles": "COc1cc2c(Oc3ccc(NS(=O)(=O)c4ccccc4OC(F)(F)F)cc3F)ccnc2cc1OCCCN", "note": "(as salt: hydrochloride) [Example D15, N-{4-[7-(3-Amino-propoxy)-6-methoxy-quinolin-4-yloxy]-3-fluoro-phenyl}-2-trifluoromethoxy-benzenesulfonamide hydrochloride]", "melting point": "95 to 97"}
{"smiles": "COc1cc2nccc(Oc3ccc(NS(=O)(=O)c4cccc5cccnc45)c(F)c3)c2cc1OC", "note": "[Example A8, Quinoline-8-sulfonic acid [4-(6,7-dimethoxy-quinolin-4-yloxy)-2-fluoro-phenyl]-amide]", "melting point": "255 to 257"}
{"smiles": "COc1cc2nccc(Oc3ccc(NS(=O)(=O)c4cccc(OC(F)(F)F)c4)c(F)c3)c2cc1OC", "note": "[Example A35, N-[4-(6,7-Dimethoxy-quinolin-4-yloxy)-2-fluoro-phenyl]-3-trifluoromethoxy-benzenesulfonamide]", "melting point": "221 to 223"}
{"smiles": "COc1cc2nccc(Oc3ccc(NS(=O)(=O)c4cc(Br)cc(C(F)(F)F)c4)c(F)c3)c2cc1OC", "note": "[Example A47, 3-Bromo-N-[4-(6,7-dimethoxy-quinolin-4-yloxy)-2-fluoro-phenyl]-5-trifluoromethyl-benzenesulfonamide]", "melting point": "214 to 216"}
{"smiles": "COc1cc2nccc(Oc3ccc(NS(=O)(=O)c4ccc(Cl)c(Cl)c4)c(F)c3)c2cc1OC", "note": "[Example A49, 3,4-Dichloro-N-[4-(6,7-dimethoxy-quinolin-4-yloxy)-2-fluoro-phenyl]-benzenesulfonamide]", "melting point": "225 to 227"}
{"smiles": "COc1cc2nccc(Oc3ccc(NS(=O)(=O)c4ccc(OCc5c(C)noc5C)cc4)cc3)c2cc1OC", "note": "[Example A87, N-[4-(6,7-Dimethoxy-quinolin-4-yloxy)-phenyl]-4-(3,5-dimethyl-isoxazol-4-ylmethoxy)-benzenesulfonamide]", "melting point": "188 to 190"}
{"smiles": "COc1cc2nccc(Oc3ccc(NS(=O)(=O)c4cccc5ccccc45)cc3)c2cc1OC", "note": "[Example A104, Naphthalene-1-sulfonic acid [4-(6,7-dimethoxy-quinolin-4-yloxy)-phenyl]-amide]", "melting point": "250 to 253"}
{"smiles": "COc1cc2nccc(Oc3ccc(NS(=O)(=O)c4cc(Cl)c(O)c(Cl)c4)c(C)c3)c2cc1OC", "note": "[Example A105, 3,5-Dichloro-N-[4-(6,7-dimethoxy-quinolin-4-yloxy)-2-methyl-phenyl]-4-hydroxy-benzenesulfonamide]", "melting point": "255 to 259"}
{"smiles": "COc1cc2nccc(Oc3ccc(NS(=O)(=O)c4ccc5c(c4)CC(=O)N5C)cc3F)c2cc1OC", "note": "[Example A125, 1-Methyl-2-oxo-2,3-dihydro-1H-indole-5-sulfonic acid [4-(6,7-dimethoxy-quinolin-4-yloxy)-3-fluoro-phenyl]-amide]", "melting point": "163 to 165"}
{"smiles": "COc1cc2c(Oc3ccc(NS(=O)(=O)c4ccccc4C(F)(F)F)cc3F)ccnc2cc1OCCCN1CCCC(C)C1", "note": "(stereo not drawn) [Example D35, N-(3-Fluoro-4-{6-methoxy-7-[3-(3-methyl-piperidin-1-yl)-propoxy]-quinolin-4-yloxy}phenyl)-2-trifluoromethyl-benzenesulfonamide]", "melting point": "118 to 121"}
{"smiles": "COc1cc2c(Oc3ccc(NS(=O)(=O)c4cc(F)ccc4F)cc3F)ccnc2cc1OCCCN1CCCC(C)C1", "note": "(stereo not drawn) [Example D36, 2,5-Difluoro-N-(3-fluoro-4-{6-methoxy-7-[3-(3-methyl-piperidin-1-yl)-propoxy]-quinolin-4-yloxy}-phenyl)-benzenesulfonamide]", "melting point": "103 to 107"}
{"smiles": "COc1cc2c(Oc3ccc(NS(=O)(=O)c4cccc(-c5ccccc5)c4)cc3F)ccnc2cc1OCCCN1CCCC(C)C1", "note": "(stereo not drawn) [Example D37, Biphenyl-3-sulfonic acid (3-fluoro-4-{6-methoxy-7-[3-(3-methyl-piperidin-1-yl)-propoxy]-quinolin-4-yloxy}-phenyl)-amide]", "melting point": "190 to 192"}
{"smiles": "COc1cc(S(=O)(=O)Nc2ccc(Oc3ccnc4cc(OCCCN5CCCC(C)C5)c(OC)cc34)c(F)c2)ccc1F", "note": "(stereo not drawn) [Example D38, 4-Fluoro-N-(3-fluoro-4-{6-methoxy-7-[3-(3-methyl-piperidin-1-yl)-propoxy]-quinolin-4-yloxy}-phenyl)-3-methoxy-benzenesulfonamide]", "melting point": "98 to 101"}
{"smiles": "COc1cc2c(Oc3ccc(NS(=O)(=O)c4ccccc4C(F)(F)F)cc3F)ccnc2cc1OCCCN1CCOCC1", "note": "[Example D39, N-{3-Fluoro-4-[6-methoxy-7-(3-morpholin-4-yl-propoxy)-quinolin-4-yloxy]-phenyl}-2-trifluoromethyl-benzenesulfonamide]", "melting point": "180 to 181"}
{"smiles": "COc1cc2c(Oc3ccc(NS(=O)(=O)c4ccccc4OC(F)(F)F)cc3F)ccnc2cc1OCCCN1CCOCC1", "note": "[Example D40, N-{3-Fluoro-4-[6-methoxy-7-(3-morpholin-4-yl-propoxy)-quinolin-4-yloxy]-phenyl}-2-trifluoromethoxy-benzenesulfonamide]", "melting point": "183 to 184"}
{"smiles": "COc1cc2c(Oc3ccc(NS(=O)(=O)c4cc(F)ccc4F)cc3F)ccnc2cc1OCCCN1CCOCC1", "note": "[Example D41, 2,5-Difluoro-N-{3-fluoro-4-[6-methoxy-7-(3-morpholin-4-yl-propoxy)-quinolin-4-yloxy]-phenyl}-benzenesulfonamide]", "melting point": "192 to 195"}
{"smiles": "COc1cc2c(Oc3ccc(NS(=O)(=O)c4cccc(-c5ccccc5)c4)cc3F)ccnc2cc1OCCCN1CCOCC1", "note": "[Example D42, Biphenyl-3-sulfonic acid {3-fluoro-4-[6-methoxy-7-(3-morpholin-4-yl-propoxy)-quinolin-4-yloxy]-phenyl}-amide]", "melting point": "210 to 212"}
{"smiles": "COc1cc2c(Oc3ccc(NS(=O)(=O)c4ccc(Cl)cc4F)cc3F)ccnc2cc1OCCCN1CCOCC1", "note": "[Example D43, 4-Chloro-2-fluoro-N-{3-fluoro-4-[6-methoxy-7-(3-morpholin-4-yl-propoxy)-quinolin-4-yloxy]-phenyl}-benzenesulfonamide]", "melting point": "200 to 203"}
{"smiles": "COc1cc(S(=O)(=O)Nc2ccc(Oc3ccnc4cc(OCCCN5CCOCC5)c(OC)cc34)c(F)c2)ccc1F", "note": "[Example D44, 4-Fluoro-N-{3-fluoro-4-[6-methoxy-7-(3-morpholin-4-yl-propoxy)-quinolin-4-yloxy]-phenyl}-3-methoxy-benzenesulfonamide]", "melting point": "90 to 93"}
{"smiles": "COc1cc2c(Oc3ccc(NS(=O)(=O)c4ccccc4F)cc3F)ccnc2cc1OCCCN1CCOCC1", "note": "[Example D45, 2-Fluoro-N-{3-fluoro-4-[6-methoxy-7-(3-morpholin-4-yl-propoxy)-quinolin-4-yloxy]-phenyl}-benzenesulfonamide]", "melting point": "179 to 181"}
{"smiles": "COc1cc2c(Oc3ccc(NS(=O)(=O)c4ccccc4[N+](=O)[O-])cc3F)ccnc2cc1OCCCN1CCOCC1", "note": "[Example D46, N-{3-Fluoro-4-[6-methoxy-7-(3-morpholin-4-yl-propoxy)-quinolin-4-yloxy]-phenyl}-2-nitro-benzenesulfonamide]", "melting point": "166 to 168"}
{"smiles": "COc1cc2c(Oc3ccc(NS(=O)(=O)c4c(Cl)cccc4Cl)cc3F)ccnc2cc1OCCCN1CCOCC1", "note": "[Example D47, 2,6-Dichloro-N-{3-fluoro-4-[6-methoxy-7-(3-morpholin-4-yl-propoxy)-quinolin-4-yloxy]-phenyl}-benzenesulfonamide]", "melting point": "194 to 196"}
{"smiles": "COc1cc2c(Oc3ccc(NS(=O)(=O)c4cccc5ccccc45)cc3F)ccnc2cc1OCCCN1CCOCC1", "note": "[Example D48, Naphthalene-1-sulfonic acid {3-fluoro-4-[6-methoxy-7-(3-morpholin-4-yl-propoxy)-quinolin-4-yloxy]-phenyl}-amide]", "melting point": "108 to 111"}
